ChEMBL document CHEMBL5465560, “Selectivity Literature for EUbOPEN Chemogenomic Library” (2024)

What was measured:
[1] = molecular target: T1, Dual specificity mitogen-activated protein kinase kinase 6 (Homo sapiens) (UniProt P52564); assay: Selectivity interaction (Kinase panel (DSF assay)) EUB0001559a MAP2K6
T1 sequence (whole entry): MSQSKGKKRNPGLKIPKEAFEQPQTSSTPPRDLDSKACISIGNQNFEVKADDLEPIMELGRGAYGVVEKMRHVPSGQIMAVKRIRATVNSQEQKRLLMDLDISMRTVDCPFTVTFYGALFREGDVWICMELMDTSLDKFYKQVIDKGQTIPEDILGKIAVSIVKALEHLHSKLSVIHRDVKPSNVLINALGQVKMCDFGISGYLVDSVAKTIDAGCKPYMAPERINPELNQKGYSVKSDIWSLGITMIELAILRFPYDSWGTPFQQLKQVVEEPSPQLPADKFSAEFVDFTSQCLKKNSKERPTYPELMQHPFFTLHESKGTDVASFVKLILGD

[2] = molecular target: T2, Bone morphogenetic protein receptor type-2 (Homo sapiens) (UniProt Q13873); assay: Selectivity interaction (LanthaScreen Eu Kinase Binding Assay) EUB0001632a BMPR2; conditions: at 10 µM
T2 sequence (whole entry): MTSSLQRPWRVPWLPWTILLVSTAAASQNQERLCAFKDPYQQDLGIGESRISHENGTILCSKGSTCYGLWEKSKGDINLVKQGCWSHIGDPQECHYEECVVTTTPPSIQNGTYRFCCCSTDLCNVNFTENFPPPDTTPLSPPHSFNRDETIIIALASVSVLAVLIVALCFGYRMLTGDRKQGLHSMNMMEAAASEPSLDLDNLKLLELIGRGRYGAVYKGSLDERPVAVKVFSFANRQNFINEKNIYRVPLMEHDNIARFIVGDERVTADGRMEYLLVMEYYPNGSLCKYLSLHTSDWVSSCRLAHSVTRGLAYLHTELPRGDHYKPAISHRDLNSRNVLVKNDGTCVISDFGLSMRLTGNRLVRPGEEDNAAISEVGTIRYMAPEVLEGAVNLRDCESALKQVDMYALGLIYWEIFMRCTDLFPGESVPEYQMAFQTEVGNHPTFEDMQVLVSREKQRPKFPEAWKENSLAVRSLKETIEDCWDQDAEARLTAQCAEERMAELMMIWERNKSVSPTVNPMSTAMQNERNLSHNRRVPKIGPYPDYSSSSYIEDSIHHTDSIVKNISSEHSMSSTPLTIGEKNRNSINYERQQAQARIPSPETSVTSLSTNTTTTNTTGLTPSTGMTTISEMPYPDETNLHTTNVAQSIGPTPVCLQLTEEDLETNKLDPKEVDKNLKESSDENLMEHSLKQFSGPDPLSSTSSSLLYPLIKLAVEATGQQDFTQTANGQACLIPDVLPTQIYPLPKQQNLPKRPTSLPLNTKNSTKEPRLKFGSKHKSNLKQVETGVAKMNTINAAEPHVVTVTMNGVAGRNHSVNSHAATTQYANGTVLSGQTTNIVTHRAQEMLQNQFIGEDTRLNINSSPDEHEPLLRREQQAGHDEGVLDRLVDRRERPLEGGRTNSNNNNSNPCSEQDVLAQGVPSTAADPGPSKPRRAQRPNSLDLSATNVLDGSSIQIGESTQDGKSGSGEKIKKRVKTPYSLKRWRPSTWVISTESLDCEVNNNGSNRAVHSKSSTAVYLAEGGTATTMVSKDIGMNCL

[3] = molecular target: Bromodomain-containing protein 9 (Homo sapiens) (UniProt Q9H8M2); assay: Selectivity interaction (Bromodomain panel (DSF asssay)) EUB0000270b BRD9
Chain of Bromodomain-containing protein 9 (Homo sapiens) (Q9H8M2 whole entry): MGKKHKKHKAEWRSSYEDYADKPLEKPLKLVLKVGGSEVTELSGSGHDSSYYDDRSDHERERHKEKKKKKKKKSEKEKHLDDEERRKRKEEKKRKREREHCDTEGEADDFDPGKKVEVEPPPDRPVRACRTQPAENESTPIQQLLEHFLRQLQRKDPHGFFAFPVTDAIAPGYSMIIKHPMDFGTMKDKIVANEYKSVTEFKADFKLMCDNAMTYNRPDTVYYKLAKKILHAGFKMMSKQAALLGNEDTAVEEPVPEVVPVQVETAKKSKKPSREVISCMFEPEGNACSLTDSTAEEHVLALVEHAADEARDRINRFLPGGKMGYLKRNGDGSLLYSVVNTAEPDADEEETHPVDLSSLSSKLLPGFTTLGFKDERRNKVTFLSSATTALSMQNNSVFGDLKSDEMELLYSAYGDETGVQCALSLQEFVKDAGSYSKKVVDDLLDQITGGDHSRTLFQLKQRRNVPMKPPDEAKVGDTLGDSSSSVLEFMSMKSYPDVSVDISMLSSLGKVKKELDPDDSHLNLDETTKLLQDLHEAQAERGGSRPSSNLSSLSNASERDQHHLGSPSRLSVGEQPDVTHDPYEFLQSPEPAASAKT

[4] = molecular target: T3, Inhibitor of nuclear factor kappa-B kinase subunit epsilon (Homo sapiens) (UniProt Q14164); assay: Selectivity interaction (KinomeScan (DiscoverX)) EUB0001619a IKBKE; conditions: at 1 µM
T3 sequence (whole entry): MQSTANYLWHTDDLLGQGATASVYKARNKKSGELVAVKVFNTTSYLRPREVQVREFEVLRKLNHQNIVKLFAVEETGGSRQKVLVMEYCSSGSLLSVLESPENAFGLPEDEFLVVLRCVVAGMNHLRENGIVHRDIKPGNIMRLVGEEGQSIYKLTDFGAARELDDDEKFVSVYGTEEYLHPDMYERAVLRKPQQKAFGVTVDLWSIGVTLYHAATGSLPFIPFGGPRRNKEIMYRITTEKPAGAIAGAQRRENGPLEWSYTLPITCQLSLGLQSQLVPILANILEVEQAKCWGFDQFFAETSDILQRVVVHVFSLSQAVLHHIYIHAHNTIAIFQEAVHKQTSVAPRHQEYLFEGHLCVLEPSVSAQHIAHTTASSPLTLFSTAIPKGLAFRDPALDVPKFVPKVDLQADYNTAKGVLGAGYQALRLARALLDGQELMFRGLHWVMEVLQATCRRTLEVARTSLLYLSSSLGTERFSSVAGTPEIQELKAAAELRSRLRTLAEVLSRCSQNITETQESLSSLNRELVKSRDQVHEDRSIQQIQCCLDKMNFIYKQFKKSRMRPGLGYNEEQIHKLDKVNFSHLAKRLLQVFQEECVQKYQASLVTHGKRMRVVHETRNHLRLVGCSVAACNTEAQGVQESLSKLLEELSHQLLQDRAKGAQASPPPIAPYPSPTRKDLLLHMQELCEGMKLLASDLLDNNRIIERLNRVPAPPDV

[5] = molecular target: T4, Serine/threonine-protein kinase tousled-like 1 (Homo sapiens) (UniProt Q9UKI8); conditions: at 10 µM
T4 sequence (whole entry): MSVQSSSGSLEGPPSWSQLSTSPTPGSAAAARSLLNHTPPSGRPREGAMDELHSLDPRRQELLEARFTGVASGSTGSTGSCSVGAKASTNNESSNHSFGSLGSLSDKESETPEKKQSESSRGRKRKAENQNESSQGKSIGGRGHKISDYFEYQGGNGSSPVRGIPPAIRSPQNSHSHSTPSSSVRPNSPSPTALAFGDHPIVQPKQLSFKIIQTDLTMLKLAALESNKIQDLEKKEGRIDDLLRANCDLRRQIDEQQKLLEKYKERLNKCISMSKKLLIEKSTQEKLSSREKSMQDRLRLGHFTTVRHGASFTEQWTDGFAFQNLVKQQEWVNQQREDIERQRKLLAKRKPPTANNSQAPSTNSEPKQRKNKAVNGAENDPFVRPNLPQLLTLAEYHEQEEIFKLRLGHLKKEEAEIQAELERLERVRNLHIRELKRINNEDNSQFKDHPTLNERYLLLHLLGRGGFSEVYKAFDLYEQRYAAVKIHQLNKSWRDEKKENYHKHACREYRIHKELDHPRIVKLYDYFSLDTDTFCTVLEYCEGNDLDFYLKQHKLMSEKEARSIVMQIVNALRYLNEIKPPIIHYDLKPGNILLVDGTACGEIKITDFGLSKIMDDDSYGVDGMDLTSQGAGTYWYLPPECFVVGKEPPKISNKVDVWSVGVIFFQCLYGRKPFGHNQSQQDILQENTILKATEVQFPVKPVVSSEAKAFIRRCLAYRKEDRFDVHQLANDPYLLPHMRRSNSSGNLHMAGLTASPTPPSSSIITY

CN(C(=O)c1cnn2cccnc12)c1cc2c(cc1N1CCOCC1)C(=O)N(C[C@@H](F)C(C)(C)O)C2
dTM [1]: 0 K

Cn1cc(-n2cnc3c(NCc4nc5cc(Cl)c(Cl)cc5[nH]4)nc(N4CCOCC4)nc32)cn1
% of inhibition [2]: -6.55%

Cc1cc(CN)cc(C)c1-c1ncn(C)c1-c1cncn1C
dTM [3]: -1.14 K

N#Cc1cccc(-c2c[nH]c3ncnc(N4CCOCC4)c23)c1
% of control [4]: 100%

CCN(CC)CCCCNc1ncc2cc(-c3cc(OC)cc(OC)c3)c(NC(=O)NC(C)(C)C)nc2n1
% of control [5]: 100%
